ChEMBL document CHEMBL4665629, “An optimised series of substituted N-phenylpyrrolamides as DNA gyrase B inhibitors” (Eur J Med Chem, 2019)
Values after ≈ are worked out from the molar mass of the structure shown.

Assays:
Staphylococcus aureus [1] = assay: Antibacterial activity against methicillin-resistant Staphylococcus aureus ATCC 43300 assessed as minimum inhibitory concentration required for >=90% inhibition of bacterial growth by CLSI protocol based broth microdilution assay; assay type: functional
Escherichia coli [2] = assay: Antibacterial activity against Escherichia coli MG1655 harboring […]/D87N and ParC S80I mutants assessed as minimum inhibitory concentration required for >=90% inhibition of bacterial growth in presence of 50 ug/ml phenylalanine-arginine beta-naphthylamide; assay type: functional
Shigella flexneri = assay: Antibacterial activity against Shigella flexneri HNCMB 20018 assessed as minimum inhibitory concentration required for >=90% inhibition of bacterial growth in presence of phenylalanine-arginine beta-naphthylamide by CLSI protocol based broth microdilution assay; assay type: functional
Escherichia coli [3] = assay: Antibacterial activity against Escherichia coli ATCC 25922 assessed as minimum inhibitory concentration required for >=90% inhibition of bacterial growth by CLSI protocol based broth microdilution assay; assay type: functional
Escherichia coli [4] = assay: Antibacterial activity against Escherichia coli MG1655 harboring […]/D87N mutant assessed as minimum inhibitory concentration required for >=90% inhibition of bacterial growth in presence of 50 ug/ml phenylalanine-arginine beta-naphthylamide; assay type: functional
Klebsiella pneumoniae [5] = assay: Antibacterial activity against wild type Klebsiella pneumoniae ATCC 10031 harboring GyrA S83F/D87G mutant assessed as minimum inhibitory concentration required for >=90% inhibition of bacterial growth in presence of 10 ug/ml phenylalanine-arginine beta-naphthamide; assay type: functional
Escherichia coli [6] = assay: Antibacterial activity against outer membrane impaired Escherichia coli JD17464 harboring lpxC mutant assessed as bacterial growth inhibition at 50 uM incubated for 24 hrs by CLSI protocol based broth microdilution assay relative to control; assay type: functional
[7] = Inhibition of Escherichia coli DNA topoisomerase 4 assessed as residual activity at 1 uM using biotinylated oligonucleotide as substrate incubated for 30 mins in presence of ATP by fluorescence-based microplate reader assay relative to control
Pseudomonas aeruginosa = assay: Antibacterial activity against Pseudomonas aeruginosa ATCC 27853 assessed as minimum inhibitory concentration required for >=90% inhibition of bacterial growth in presence of phenylalanine-arginine beta-naphthylamide by CLSI protocol based broth microdilution assay; assay type: functional
Enterococcus faecium [8] = assay: Antibacterial activity against Enterococcus faecium ATCC 35667 assessed as bacterial growth inhibition at 50 uM incubated for 24 hrs by CLSI protocol based broth microdilution assay relative to control; assay type: functional
DNA gyrase [9] = molecular target: T1, DNA gyrase (Escherichia coli, UniProt P0AES4+P0AES6); assay: Inhibition of Escherichia coli DNA gyrase assessed as conversion of NADH to NAD+ by ATPase assay; assay type: protein-complex assay
Klebsiella pneumoniae [10] = assay: Antibacterial activity against wild type Klebsiella pneumoniae ATCC 10031 assessed as minimum inhibitory concentration required for >=90% inhibition of bacterial growth in presence of 10 ug/ml phenylalanine-arginine beta-naphthamide; assay type: functional
[11] = molecular target: Topoisomerase IV (Staphylococcus aureus) (UniProt P0C1U9+P0C1S7); assay: Inhibition of Staphylococcus aureus DNA topoisomerase 4 assessed as residual activity at 1 uM using biotinylated oligonucleotide as substrate incubated for 30 mins in presence of ATP by fluorescence-based microplate reader assay relative to control; assay type: protein-complex assay
Klebsiella pneumoniae [12] = assay: Antibacterial activity against wild type Klebsiella pneumoniae ATCC 10031 harboring GyrA S83F mutant assessed as minimum inhibitory concentration required for >=90% inhibition of bacterial growth in presence of 10 ug/ml phenylalanine-arginine beta-naphthamide; assay type: functional
DNA gyrase [13] = molecular target: T1, DNA gyrase; assay: Inhibition of Escherichia coli DNA gyrase using biotinylated oligonucleotide as substrate incubated for 30 mins in presence of ATP by fluorescence-based microplate reader assay; assay type: protein-complex assay
Klebsiella pneumoniae [14] = assay: Antibacterial activity against Klebsiella pneumoniae ATCC 700603 assessed as bacterial growth inhibition at 50 uM incubated for 24 hrs by CLSI protocol based broth microdilution assay relative to control; assay type: functional
Klebsiella pneumoniae [15] = assay: Antibacterial activity against wild type Klebsiella pneumoniae ATCC 10031 harboring GyrA S83L mutant assessed as minimum inhibitory concentration required for >=90% inhibition of bacterial growth in presence of 10 ug/ml phenylalanine-arginine beta-naphthamide; assay type: functional
Escherichia coli [16] = assay: Antibacterial activity against efflux pump d effect ive Escherichia coli JW5503 harbouring tolC mutant assessed as bacterial growth inhibition at 50 uM incubated for 24 hrs by CLSI protocol based broth microdilution assay relative to control; assay type: functional
Enterococcus faecium [17] = assay: Antibacterial activity against vancomycin-resistant Enterococcus faecium ATCC 700221 assessed as minimum inhibitory concentration required for >=90% inhibition of bacterial growth by CLSI protocol based broth microdilution assay; assay type: functional
Staphylococcus aureus [18] = assay: Antibacterial activity against Staphylococcus aureus ATCC 29213 assessed as minimum inhibitory concentration required for >=90% inhibition of bacterial growth by CLSI protocol based broth microdilution assay; assay type: functional
Acinetobacter baumannii = assay: Antibacterial activity against Acinetobacter baumannii ATCC 19606 assessed as bacterial growth inhibition at 50 uM incubated for 24 hrs by CLSI protocol based broth microdilution assay relative to control; assay type: functional; settings: ATCC 19606 = CIP 70.34 = JCM 6841
Staphylococcus aureus [19] = assay: Antibacterial activity against methicillin-resistant and vancomycin-intermediate Staphylococcus aureus ATCC 700699 assessed as minimum inhibitory concentration required for >=90% inhibition of bacterial growth by CLSI protocol based broth microdilution assay; assay type: functional
Escherichia coli [20] = assay: Antibacterial activity against wild type Escherichia coli MG1655 assessed as minimum inhibitory concentration required for >=90% inhibition of bacterial growth in presence of 50 ug/ml phenylalanine-arginine beta-naphthylamide; assay type: functional
Escherichia coli [21] = assay: Antibacterial activity against Escherichia coli ATCC 25922 assessed as minimum inhibitory concentration required for >=90% inhibition of bacterial growth in presence of phenylalanine-arginine beta-naphthylamide by CLSI protocol based broth microdilution assay; assay type: functional
Staphylococcus aureus [22] = assay: Antibacterial activity against […] Staphylococcus aureus ATCC 25923 assessed as minimum inhibitory concentration required for >=90% inhibition of bacterial growth by CLSI protocol based broth microdilution assay; assay type: functional
Escherichia coli [23] = assay: Antibacterial activity against Escherichia coli MG1655 assessed as minimum inhibitory concentration required for >=90% inhibition of bacterial growth in presence of phenylalanine-arginine beta-naphthylamide by CLSI protocol based broth microdilution assay; assay type: functional
Staphylococcus aureus [24] = assay: Antibacterial activity against methicillin-resistant Staphylococcus aureus ATCC 43300 assessed as minimum inhibitory concentration required for >=90% inhibition of bacterial growth in presence of 50% inactivated human serum by CLSI protocol based broth microdilution assay; assay type: functional
Streptococcus pyogenes = assay: Antibacterial activity against Streptococcus pyogenes ATCC 19653 assessed as minimum inhibitory concentration required for >=90% inhibition of bacterial growth by CLSI protocol based broth microdilution assay; assay type: functional
Klebsiella pneumoniae [25] = assay: Antibacterial activity against Klebsiella pneumoniae ATCC 10031 assessed as minimum inhibitory concentration required for >=90% inhibition of bacterial growth in presence of phenylalanine-arginine beta-naphthylamide by CLSI protocol based broth microdilution assay; assay type: functional
Escherichia coli [26] = assay: Antibacterial activity against Escherichia coli MG1655 harboring […] mutant assessed as minimum inhibitory concentration required for >=90% inhibition of bacterial growth in presence of 50 ug/ml phenylalanine-arginine beta-naphthylamide; assay type: functional

`CCn1cc(C(=O)O)c(=O)c2ccc(NC(=O)c3[nH]c(C)c(Cl)c3Cl)cc21` showed an MIC (Staphylococcus aureus [1]) of 2.5 µM (≈ 1.02 µg/mL), an MIC (Escherichia coli [2]) of 2.5 µM and an MIC (Shigella flexneri) greater than 32 µM. The MIC (Escherichia coli [3]) was greater than 32 µM, the MIC (Escherichia coli [4]) was 2.5 µM and the MIC (Klebsiella pneumoniae [5]) was 2.5 µM. The inhibition at 50 µM (Escherichia coli [6]) was 11%, the Activity [7] was 92% and the MIC (Pseudomonas aeruginosa) was greater than 32 µM. For the same molecule, the inhibition at 50 µM (Enterococcus faecium [8]) was 97%, the IC50 (DNA gyrase [9]) was 1000 nM and the MIC (Klebsiella pneumoniae [10]) was 1.2 µM. It also gave an Activity [11] of 100%, an MIC (Klebsiella pneumoniae [12]) of 1.2 µM and an IC50 (DNA gyrase [13]) of 1400 nM. For the same molecule, the inhibition at 50 µM (Klebsiella pneumoniae [14]) was 7%, the MIC (Klebsiella pneumoniae [15]) was 1.2 µM and the inhibition at 50 µM (Escherichia coli [16]) was 54%. The MIC (Enterococcus faecium [17]) was 0.72 µM (≈ 0.294 µg/mL), the MIC (Staphylococcus aureus [18]) was 0.78 µM (≈ 0.318 µg/mL) and the inhibition at 50 µM (Acinetobacter baumannii) was 2%. The MIC (Staphylococcus aureus [19]) was 2.5 µM (≈ 1.02 µg/mL), the MIC (Escherichia coli [20]) was 2.5 µM and the MIC (Escherichia coli [21]) was 2.3 µM. It also gave an MIC (Staphylococcus aureus [22]) of 2.5 µM (≈ 1.02 µg/mL), an MIC (Escherichia coli [23]) of 2.5 µM and an MIC (Staphylococcus aureus [24]) of 32 µM. For the same molecule, the MIC (Streptococcus pyogenes) was 0.72 µM (≈ 0.294 µg/mL), the MIC (Klebsiella pneumoniae [25]) was greater than 32 µM and the MIC (Escherichia coli [26]) was 2.5 µM.
